Experimental findings from US12583872B2, “Photosensitizer compounds, methods of manufacture and application to plants” (NUTRIEN AG SOLUTIONS (CANADA) INC., priority 2019, dated 2026) are described below.

SMILES strings stand for the structures.

Test [1] has as its system dollar spot fungus (Sclerotinia homoeocarpa). The test is described as follows: Dollar spot fungus agar plate assay (amended PDA, radial growth). It counts as cell-based. The conditions noted are these: for inhibition at 10 µM: Clarireedia homoeocarpa. As for the experimental part:
Control of dollar spot fungus (Sclerotinia homoeocarpa) with Ce6-mix-DMAE^15,17 amide and Ce6Na3 (comparative) was assessed. Treatments were amended into Potato Dextrose Agar (PDA) at desired concentrations. Then, a 5 mm diameter plug of a Sclerotinia homoeocarpa isolate (3 isolates total tested) was inoculated into the center of the amended Petri-dish and incubated at 21° C. in the dark for 24 h. After 24 h, one set of Petri-dishes (in triplicate) was left in the dark (no light) and one set was placed under illumination (light) for the remainder of the experiment (all at 21° C.). Radial growth of the fungus was monitored daily until the growth of S. homoeocarpa on non-amended PDA reached the edge of the Petri-dish. Illumination was provided by fluorescent lights emitting about 180 μmol/m^2/s photosynthetically active radiation (PAR).
Agar protocol: control of dollar spot fungus (Sclerotinia homoeocarpa) with modified Ce6 was assessed. Treatments were amended into Potato Dextrose Agar (PDA) at desired concentrations. Then, a 5 mm diameter plug of a Sclerotinia homoeocarpa isolate (3 isolates total tested) was inoculated into the center of the amended Petri-dish and incubated at 21° C. in the dark for 24 hours. After 24 hours, one set of Petri-dishes (in triplicate) was left in the dark and one set was placed under illumination for the remainder of the experiment (all at 21° C.). Radial growth of the fungus was monitored daily until the growth of S. homoeocarpa on non-amended PDA reaches the edge of the Petri-dish. Illumination was provided by fluorescent lights emitting about 180 μmol/m2/s photosynthetically active radiation (PAR).

Test [2] shares this test system. As to the kind of experiment: Dollar spot fungus broth protocol (PBS treatment, then radial growth on PDA). The settings on record: Broth data; for inhibition at 100 µM: Clarireedia homoeocarpa. It counts as cell-based. As for the experimental part: Broth protocol: control of dollar spot fungus (Sclerotinia homoeocarpa) with modified chlorins was assessed. Treatments were prepared in Phosphate Buffered Saline (PBS) in 24 well plates (in duplicates for light vs. dark incubation) at desired concentrations. Then, a 5 mm diameter plug of a Sclerotinia homoeocarpa isolate (3 isolates total tested) was inoculated into the PBS and incubated at 21° C. in the dark for 2 hours. After 2 hours, one of the 24 well plates (with isolates in triplicate) was left in the dark and one 24 well plate was placed under illumination for 1 hour (all at 21° C.). Following illumination, fungal plugs were removed from PBS, blotted dry on sterile filter paper and transferred to non-amended Potato Dextrose Agar (PDA). Radial growth of the fungus was monitored daily until the growth of S. homoeocarpa reached the edge of the Petri-dish. Illumination was provided by LED lights emitting about 1000 μmol/m2/s photosynthetically active radiation (PAR).

In test [3] the test system is Pseudomonas syringae pv. tabaci. The test is described as follows: Relative inactivation of Pseudomonas syringae pv. tabaci in PBS (CFU count). It counts as cell-based. The settings on record: for Relative Inactivation (log[CFUcontrol mL^−1] − log[CFUtreatment mL^−1]): concentration not given; for Killing of bacteria: light treatment. As for the experimental part:
Experiments were conducted to evaluate control of the gram-negative bacterial plant pathogen Pseudomonas syringae pv. tabaci with modified Ce6. Treatments were prepared in Phosphate Buffered Saline (PBS) in 96 well plates at desired concentrations. A bacterial suspension was inoculated into the PBS and incubated at 28° C. in the dark for 30 min. After 30 min, the 96 well plate was placed under illumination for 1 hour (at 21° C.). A separate plate prepared at the same time was kept in the dark without illumination and served as dark control. Following illumination, bacterial suspensions were serially diluted and 10 μL of each dilution was spread uniformly on Tryptic Soy Agar (TSA) plates and placed in the dark in an incubator at 28° C. for 48 hours. After 48 hours, bacterial colonies were counted and results were log transformed (log colony forming units (CFU)/mL). The relative inactivation was determined by taking the difference between log CFU (PBS control) and log CFU (treatments). Sample Illumination was provided by LED lights (Heliospectra RX30) emitting about 1000 μmol/m^2/s photosynthetically active radiation (PAR). The modified Ce6 that were evaluated are the Ce6-mix-DMAE^15,17 amide, Ce6-bis-DMAE^15,17 amide and Ce6-mono-DMAE^15 amide.

The test system of test [4] is Colletotrichum orbiculare ATC20767 (Cgm). The test is described as follows: Control of fungal pathogen Cgm on Nicotiana benthamiana. It counts as in vivo. The settings on record: 0.05% + Surfactants (0.5% propylene glycol + 0.1% Pluronics F-127) (Table 14); host Nicotiana benthamiana. On the procedure:
Control of the fungal plant pathogen Colletotrichum orbiculare ATC20767 (Cgm) on the host plant Nicotiana benthamiana following treatment with modified Chlorin e6 compounds was assessed. Treatments were applied to N. benthamiana plants approximately 2 h prior to inoculation with a spore suspension of Cgm. Plants were then exposed to light for a 24-hour period followed by dark incubation until disease symptoms were evident on the water treated control plants. Once disease symptoms were evident, lesions were counted and leaf area measured in order to determine the number of lesions/cm^2 leaf area. Four replicate plants were used per treatment and plants were randomized under the light source. Illumination was provided by LED lights emitting about 180 μmol/m^2/s photosynthetically active radiation (PAR).

Test [5] has as its system Pseudomonas syringae pv tabacci. As to the kind of experiment: Control of bacterial pathogen Pst on Arabidopsis thaliana. The settings on record: 0.05% + surfactants (0.5% propylene glycol + 0.1% Pluronics F-127); host Arabidopsis thaliana; yellow leaves/plant. It counts as in vivo. On the procedure: Arabidopsis thaliana plants were grown under 12 hours:12 hours, light:dark photoperiod, under LED lights (PAR 24 μmol m^−2 s^−1), at a temperature of 25° C.±3° C. and 65% relative humidity. After 3 weeks, plants were sprayed with formulations (50% dilution in water), allowed to dry for 2 h, after which Pseudomonas syringae pv tabacci (at OD0.08 diluted in 10 mM MgCl2) was sprayed. Plants were kept under plastic domes until symptoms develop. Disease severity was rated by counting the number of yellow leaves/plant. Data are average of 3 replicas.

For test [6], the system named is Kentucky bluegrass (Poa pratensis). As to the kind of experiment: Kentucky bluegrass tolerance to salt stress (turf quality). The conditions noted are these: 0.1%; 170 mM NaCl, 2 salt applications; scale 1-9 (1=dead, 9=healthy). It counts as in vivo. On the procedure:
Kentucky bluegrass (Poa pratensis) was grown under greenhouse conditions for ˜3 weeks. After 3 weeks, plants were sprayed with formulations and allowed to sit for 24 hours, after which the pots were placed in a 170 mM NaCl solution until the soil was saturated. The salt application was repeated again 7 days later for a total of 2 salt applications. Salinity stress was evaluated based on a turf quality scale of 1-9; where 1=dead, brown turf; 6=minimally acceptable turf quality (based on standards for golf courses or sports fields); and 9=dense, dark green turf (healthy). Data are average of 5 replicates.

The mark [7] stands for this setting: Agar data, 10 uM, Dark (Table 5).
The mark [8] stands for this setting: Agar data, 10 uM, Light (Table 5).
Setting [9] is: Light: 1 hour about 1000 μmol/m^2/s PAR after 30 min dark incubation, where no CFU were left, treatment set to 1 CFU/mL.

Broadly, the inhibition is the relative decrease from the control value, in per cent. Regarding `C=Cc1c(C)c2cc3nc(c(CC(=O)NCCNCCCC)c4[nH]c(cc5nc(cc1[nH]2)C(C)=C5CC)c(C)c4C(=O)O)[C@@H](CCC(=O)O)[C@@H]3C` [Ce6-mono-BAE^15 amide], the inhibition at 10 µM stood at 49% in test [1] (setting [7]) and 99% in test [1] (setting [8]).

Take `C=Cc1c(C)c2cc3nc(c(CC(=O)NCCOP(=O)(O)O)c4[nH]c(cc5nc(cc1[nH]2)C(C)=C5CC)c(C)c4C(=O)O)[C@@H](CCC(=O)O)[C@@H]3C` [Ce6-mono-EP OA^15]: the inhibition at 100 µM in test [2] (100 uM, Dark) is -5%; in test [2] (100 uM, Light), 71%.

As to `C=Cc1c(C)c2cc3nc(c(CC(=O)NCCN(C)C)c4[nH]c(cc5nc(cc1[nH]2)C(C)=C5CC)c(C)c4C(=O)O)[C@@H](CCC(=O)O)[C@@H]3C` [Ce6-mono-DMAE^15 amide], the “Relative Inactivation (log[CFUcontrol mL^−1] − log[CFUtreatment mL^−1])” value in test [3] (Dark control plate) was 0.21 ± 0.33; in test [3] (setting [9]) it was 7.98 ± 0.65. Also, the “Killing of bacteria” value in test [3] is “killed all bacteria”. In addition, the “Disease inhibition, %” value is 94% in test [4] and 56% in test [5].

What is called Inhibition is the drop in the measured response relative to a control, in per cent. As to `C=Cc1c(C)c2cc3nc(c(CC(=O)[O-])c4[nH]c(cc5nc(cc1[nH]2)C(C)=C5CC)c(C)c4C(=O)[O-])[C@@H](CCC(=O)[O-])[C@@H]3C.[Na+].[Na+].[Na+]` [Ce6Na3], the Inhibition is 26% in test [1] (setting [7]); 74% in test [1] (setting [8]); 39% in test [1] (Light, 5 μM, agar plate); 74% in test [1] (Light, 10 μM, agar plate); 99% in test [1] (Light, 31 μM, agar plate); 13% in test [1] (No Light, 5 μM, agar plate). Besides, the Inhibition is 26% in test [1] (No Light, 10 μM, agar plate); 44% in test [1] (No Light, 31 μM, agar plate); −4% in test [2] (10 uM, Dark); 53% in test [2] (10 uM, Light); 16% in test [2] (100 uM, Dark); 66% in test [2] (100 uM, Light). The figures for the “Relative Inactivation (log[CFUcontrol mL^−1] − log[CFUtreatment mL^−1])” value in test [3] (Dark control plate) and in test [3] (setting [9]) were −0.03 ± 0.13 and 0.39 ± 0.29, respectively. The “Turf Quality” value in test [6] is reported as 6.

In the case of `C=Cc1c(C)c2cc3nc(c(CC(=O)NCCN(C)C)c4[nH]c(cc5nc(cc1[nH]2)C(C)=C5CC)c(C)c4C(=O)O)[C@@H](CCC(=O)NCCN(C)C)[C@@H]3C` [Ce6-bis-DMAE^15,17 amide], the “Relative Inactivation (log[CFUcontrol mL^−1] − log[CFUtreatment mL^−1])” value came out at 1.13 ± 0.42 in test [3] (Dark control plate) and 7.98 ± 0.65 in test [3] (setting [9]). Moreover, the “Killing of bacteria” value in test [3] is on record as “killed all bacteria”.
